Tests used:
Format in all cases: in vivo
[1] = system: Myzus persicae; test: Myzus persicae (green peach aphid), systemic test; conditions: 144 h, roots of infested pea seedlings in test solution, 6 days, mortality, special effects on the plant
Excerpt: Myzus persicae (Green peach aphid), systemic test: Roots of pea seedlings, infested with an aphid population of mixed ages, are placed directly in the test solutions at an application rate of 12.5 ppm. 6 days after introduction, samples are checked for mortality and special effects on the plant. The following compounds gave at least 80% control of Myzus persicae: A3, B2, B3, B5, B6, B7, B8, B11, B12, C1, C2, C3,C4, C5, C6, C7, D1, E1, E2, G1, G3, G5, G6, H1, H5, H6, H9, H10, H11, H12, H13, H14, H18, H19, H20, H24, H25, and H26.

[2] = system: Plutella xylostella; test: Plutella xylostella (diamond back moth) artificial diet test; conditions: 144 h, 200 ppm (concentration in well 18 ppm), L2 larvae, 6 days, larval mortality, growth regulation
Description: 24-well microtiter plate (MTP) with artificial diet was treated with test solutions at an application rate of 200 ppm (concentration in well 18 ppm) by pipetting. After drying, the MTP's were infested with L2 larvae (7-12 per well). After an incubation period of 6 days, samples were checked for larval mortality and growth regulation.

[3] = system: Tetranychus urticae; test: Tetranychus urticae (two-spotted spider mite) leaf disc spray test; conditions: foliar, 192 h, 200 ppm spray on bean leaf discs, mixed ages, 8 days, egg, larval and adult mortality
Excerpt: Bean leaf discs on agar in 24-well microtiter plates were sprayed with test solutions at an application rate of 200 ppm. After drying, the leaf discs are infested with mite populations of mixed ages. 8 days later, discs are checked for egg mortality, larval mortality, and adult mortality.

[4] = system: Thrips tabaci; test: Thrips tabaci (onion thrips) leaf disc spray test; conditions: foliar, 168 h, 200 ppm spray on sunflower leaf discs, mixed ages, 7 days, mortality
Description: [The procedure below names another target; the source lists this target under the same test.] Sunflower leaf discs were placed on agar in a 24-well microtiter plate and sprayed with test solutions at an application rate of 200 ppm. After drying, the leaf discs were infested with an […] population of mixed ages. After an incubation period of 7 days, samples were checked for mortality.

[5] = system: Spodoptera littoralis; test: Spodoptera littoralis (Egyptian cotton leafworm) leaf disc spray test; conditions: foliar, 72 h, 200 ppm spray on cotton leaf discs, L1 larvae, mortality, feeding behavior, growth regulation 3 days after treatment
Excerpt: Cotton leaf discs were placed on agar in a 24-well microtiter plate and sprayed with test solutions at an application rate of 200 ppm. After drying, the leaf discs were infested with 5 L1 larvae. The samples were checked for mortality, feeding behavior, and growth regulation 3 days after treatment (DAT).

[6] = system: Heliothis virescens; test: Heliothis virescens (tobacco budworm) egg/artificial diet test; conditions: 96 h, 200 ppm (concentration in well 18 ppm), eggs 0-24 h old on artificial diet, 4 days, egg mortality, larval mortality, growth regulation
Description: Eggs (0-24 h old) were placed in 24-well microtiter plate on artificial diet and treated with test solutions at an application rate of 200 ppm (concentration in well 18 ppm) by pipetting. After an incubation period of 4 days, samples were checked for egg mortality, larval mortality, and growth regulation.

[7] = system: Diabrotica balteata; test: Diabrotica balteata (corn root worm) artificial diet test; conditions: 120 h, 200 ppm (concentration in well 18 ppm), L2 larvae, 5 days, larval mortality, growth regulation
Description: A 24-well microtiter plate (MTP) with artificial diet was treated with test solutions at an application rate of 200 ppm (concentration in well 18 ppm) by pipetting. After drying, the MTP's were infested with L2 larvae (6-10 per well). After an incubation period of 5 days, samples were checked for larval mortality and growth regulation.

CCN1CC(NC(=O)c2ccc(C3=NOC(c4cc(Cl)cc(Cl)c4)(C(F)(F)F)C3)cc2C)CO1 (centres unmarked) [Compound A3, 4-[5-(3,5-Dichloro-phenyl)-5-trifluoromethyl-4,5-dihydroisoxazol-3-yl]-N-(2-ethyl-isoxazolidin-4-yl)-2-methyl-benzamide]
≥ 80%: pest or weed control at 12.5 ppm [1] | pest or weed control at 200 ppm [2] | pest or weed control at 200 ppm [3] | pest or weed control at 200 ppm [4] | pest or weed control at 200 ppm [5] | pest or weed control at 200 ppm [6] | pest or weed control at 200 ppm [7]

Cc1cc(C2=NOC(c3cc(Cl)cc(Cl)c3)(C(F)(F)F)C2)ccc1C(=O)N[C@@H]1CON(C)C1=O (stereo partly drawn) [Compound B2, 4-[5-(3,5-Dichloro-phenyl)-5-trifluoromethyl-4,5-dihydro-isoxazol-3-yl]-2-methyl-N-((R)-2-methyl-3-oxo-isoxazolidin-4-yl)-benzamide]
≥ 80%: pest or weed control at 12.5 ppm [1] | pest or weed control at 200 ppm [2] | pest or weed control at 200 ppm [3] | pest or weed control at 200 ppm [4] | pest or weed control at 200 ppm [5] | pest or weed control at 200 ppm [6] | pest or weed control at 200 ppm [7]

C#CCN1OC[C@@H](NC(=O)c2ccc(C3=NOC(c4cc(Cl)cc(Cl)c4)(C(F)(F)F)C3)cc2C)C1=O (stereo partly drawn) [Compound B3, 4-[5-(3,5-Dichloro-phenyl)-5-trifluoromethyl-4,5-dihydro-isoxazol-3-yl]-2-methyl-N-((R)-2-propargyl-3-oxo-isoxazolidin-4-yl)-benzamide]
≥ 80%: pest or weed control at 12.5 ppm [1] | pest or weed control at 200 ppm [2] | pest or weed control at 200 ppm [3] | pest or weed control at 200 ppm [4] | pest or weed control at 200 ppm [5] | pest or weed control at 200 ppm [6] | pest or weed control at 200 ppm [7]

CCN1OC[C@@H](NC(=O)c2ccc(C3=NOC(c4cc(Cl)cc(Cl)c4)(C(F)(F)F)C3)cc2C)C1=O (stereo partly drawn) [Compound B6, 4-[5-(3,5-Dichloro-phenyl)-5-trifluoromethyl-4,5-dihydro-isoxazol-3-yl]-2-methyl-N-((R)-2-ethyl-3-oxo-isoxazolidin-4-yl)-benzamide]
≥ 80%: pest or weed control at 12.5 ppm [1] | pest or weed control at 200 ppm [2] | pest or weed control at 200 ppm [3] | pest or weed control at 200 ppm [4] | pest or weed control at 200 ppm [5] | pest or weed control at 200 ppm [6] | pest or weed control at 200 ppm [7]

COCCN1OC[C@@H](NC(=O)c2ccc(C3=NOC(c4cc(Cl)cc(Cl)c4)(C(F)(F)F)C3)cc2C)C1=O (stereo partly drawn) [Compound B7, 4-[5-(3,5-Dichloro-phenyl)-5-trifluoromethyl-4,5-dihydro-isoxazol-3-yl]-2-methyl-N-((R)-2-(2-methoxyethyl)-3-oxo-isoxazolidin-4-yl)-benzamide]
≥ 80%: pest or weed control at 12.5 ppm [1] | pest or weed control at 200 ppm [2] | pest or weed control at 200 ppm [3] | pest or weed control at 200 ppm [4] | pest or weed control at 200 ppm [5] | pest or weed control at 200 ppm [6] | pest or weed control at 200 ppm [7]

CCCCN1OC[C@@H](NC(=O)c2ccc(C3=NOC(c4cc(Cl)cc(Cl)c4)(C(F)(F)F)C3)cc2C)C1=O (stereo partly drawn) [Compound B8, 4-[5-(3,5-Dichloro-phenyl)-5-trifluoromethyl-4,5-dihydro-isoxazol-3-yl]-2-methyl-N-((R)-2-butyl-3-oxo-isoxazolidin-4-yl)-benzamide]
≥ 80%: pest or weed control at 12.5 ppm [1] | pest or weed control at 200 ppm [2] | pest or weed control at 200 ppm [3] | pest or weed control at 200 ppm [4] | pest or weed control at 200 ppm [5] | pest or weed control at 200 ppm [6] | pest or weed control at 200 ppm [7]

Cc1cc(C2=NOC(c3cc(Cl)cc(Cl)c3)(C(F)(F)F)C2)ccc1C(=O)N[C@@H]1CON(C2COC2)C1=O (stereo partly drawn) [Compound B12, 4-[5-(3,5-Dichloro-phenyl)-5-trifluoromethyl-4,5-dihydro-isoxazol-3-yl]-2-methyl-N-((R)-2-(oxetan-3-yl)-3-oxo-isoxazolidin-4-yl)-benzamide]
≥ 80%: pest or weed control at 12.5 ppm [1] | pest or weed control at 200 ppm [2] | pest or weed control at 200 ppm [3] | pest or weed control at 200 ppm [4] | pest or weed control at 200 ppm [5] | pest or weed control at 200 ppm [6] | pest or weed control at 200 ppm [7]

CCN1OC[C@@H](NC(=O)c2ccc(C3=NOC(c4cc(Cl)c(Cl)c(Cl)c4)(C(F)(F)F)C3)cc2C)C1=O (stereo partly drawn) [Compound C1, 4-[5-(3,4,5-Trichloro-phenyl)-5-trifluoromethyl-4,5-dihydro-isoxazol-3-yl]-2-methyl-N-((R)-2-ethyl-3-oxo-isoxazolidin-4-yl)-benzamide]
≥ 80%: pest or weed control at 12.5 ppm [1] | pest or weed control at 200 ppm [2] | pest or weed control at 200 ppm [3] | pest or weed control at 200 ppm [4] | pest or weed control at 200 ppm [5] | pest or weed control at 200 ppm [6] | pest or weed control at 200 ppm [7]

CCN1OC[C@@H](NC(=O)c2ccc(C3=NOC(c4cc(Cl)c(Br)c(Cl)c4)(C(F)(F)F)C3)cc2C)C1=O (stereo partly drawn) [Compound C2, 4-[5-(3,5-Dichloro-4-bromo-phenyl)-5-trifluoromethyl-4,5-dihydro-isoxazol-3-yl]-2-methyl-N-((R)-2-ethyl-3-oxo-isoxazolidin-4-yl)-benzamide]
≥ 80%: pest or weed control at 12.5 ppm [1] | pest or weed control at 200 ppm [2] | pest or weed control at 200 ppm [3] | pest or weed control at 200 ppm [4] | pest or weed control at 200 ppm [5] | pest or weed control at 200 ppm [6] | pest or weed control at 200 ppm [7]

CCN1OC[C@@H](NC(=O)c2ccc(C3=NOC(c4cc(Cl)c(F)c(Cl)c4)(C(F)(F)F)C3)cc2C)C1=O (stereo partly drawn) [Compound C3, 4-[5-(3,5-Dichloro-4-fluoro-phenyl)-5-trifluoromethyl-4,5-dihydro-isoxazol-3-yl]-2-methyl-N-((R)-2-ethyl-3-oxo-isoxazolidin-4-yl)-benzamide]
≥ 80%: pest or weed control at 12.5 ppm [1] | pest or weed control at 200 ppm [2] | pest or weed control at 200 ppm [3] | pest or weed control at 200 ppm [4] | pest or weed control at 200 ppm [5] | pest or weed control at 200 ppm [6] | pest or weed control at 200 ppm [7]

CCN1OC[C@@H](NC(=O)c2ccc(C3=NOC(c4cc(F)cc(Cl)c4)(C(F)(F)F)C3)cc2C)C1=O (stereo partly drawn) [Compound C5, 4-[5-(3-chloro-5-fluoro-phenyl)-5-trifluoromethyl-4,5-dihydro-isoxazol-3-yl]-2-methyl-N-((R)-2-ethyl-3-oxo-isoxazolidin-4-yl)-benzamide]
≥ 80%: pest or weed control at 12.5 ppm [1] | pest or weed control at 200 ppm [2] | pest or weed control at 200 ppm [3] | pest or weed control at 200 ppm [4] | pest or weed control at 200 ppm [5] | pest or weed control at 200 ppm [6] | pest or weed control at 200 ppm [7]

Source: US10206400B2, “Insecticidal compounds based on isoxazoline derivatives” (Syngenta Crop Protection LLC, priority 2009, dated 2019)
